Measurements published in patent US20210085640A1, “ACYLATED CATECHIN POLYPHENOLS AND METHODS OF THEIR USE FOR THE TREATMENT OF CANCER” (Flagship Pioneering Innovations V, Inc., priority 2018, published 2021).

Legend:
Assay type in all cases: cell-based
A549 lung cancer cells = test: Cancer cell survival (CellTiter-Glo), A549; details: Homo sapiens, 72 h
How it was run: (§1)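 Cells were seeded at 4×10^3 cells/well and left overnight at 37 C, 5% CO2, then exposed in triplicate to nine compound concentrations for 72 h. Dosing solutions were made at 10× final (1 μM-10 mM fatty acids, 100 nM-1 mM other compounds). CellTiter-Glo luminescence, normalised to untreated and medium-only wells, gave IC50.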

MCF7 breast cancer cells = test: Cancer cell survival (CellTiter-Glo), MCF7; details: Homo sapiens, 72 h
How it was run: as §1

[1] = tested on: HCT 116 colorectal cancer cells; test: Cancer cell survival (CellTiter-Glo), HCT 116; details: Homo sapiens, HCT 116 cells, 72 h
How it was run: as §1

T24 bladder cancer cells = test: Cancer cell survival (CellTiter-Glo), T24; details: Homo sapiens
How it was run: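 T24 cells seeded at 4×10^3 cells/well overnight, then exposed 72 h at 37 C, 5% CO2 to nine concentrations in triplicate. Survival measured by CellTiter-Glo luminescence relative to untreated and medium controls; IC50 derived.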

AGS stomach cancer cells = test: Cancer cell survival (CellTiter-Glo), AGS
How it was run: as §1

[2] = tested on: PC-3 prostate cancer cells; test: Cancer cell survival (CellTiter-Glo), PC-3; details: Homo sapiens, PC-3 cells, 72 h
How it was run: as §1

[3] = tested on: Daudi lymphoma cancer cells; test: Cancer cell survival (CellTiter-Glo), Daudi; details: Homo sapiens, 72 h
How it was run: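 Daudi cells (4×10^3/well) were exposed for 72 h at 37 °C to nine concentrations of compound, added as 10× solutions spanning 1 μM–10 mM (fatty acids) or 100 nM–1 mM (others). CellTiter-Glo luminescence gave % survival versus untreated, medium-blank corrected; IC50 derived.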

A-431 skin cancer cells = test: Cancer cell survival (CellTiter-Glo), A-431; details: Homo sapiens, A-431 cells, 72 h
How it was run: as §1

[4] = 317 μM, read-out: Cell survival at given concentration
[5] = 1 mM, read-out: Cell survival at given concentration
[6] = 3 mM, read-out: Cell survival at given concentration
[7] = 10 mM, read-out: Cell survival at given concentration

In the case of CCCC(=O)O [butyrate], the viability at 1 µM (A549 lung cancer cells; 1 μM, Table 7.2, read-out: Cell survival at given concentration) is reported as 95%, the viability at 3 µM (A549 lung cancer cells; 3 μM, Table 7.2, read-out: Cell survival at given concentration) is reported as 96% and the viability at 10 µM (A549 lung cancer cells; 10 μM, Table 7.2, read-out: Cell survival at given concentration) is reported as 99%. The viability at 32 µM (A549 lung cancer cells; 32 μM, Table 7.2, read-out: Cell survival at given concentration) was 100%, the viability at 100 µM (A549 lung cancer cells; 100 μM, Table 7.2, read-out: Cell survival at given concentration) was 102% and the viability at 317 µM (A549 lung cancer cells; [4]) was 101%. It also gave a viability at 1000 µM (A549 lung cancer cells; [5]) of 90%, a viability at 3000 µM (A549 lung cancer cells; [6]) of 67% and a viability at 10000 µM (A549 lung cancer cells; [7]) of 27%. The IC50 (A549 lung cancer cells; Table 7.2) was 5.07 mM, the viability at 1 µM (MCF7 breast cancer cells; 1 μM, Table 5.2, read-out: Cell survival at given concentration) was 101% and the viability at 3 µM (MCF7 breast cancer cells; 3 μM, Table 5.2, read-out: Cell survival at given concentration) was 103%. It also gave a viability at 10 µM (MCF7 breast cancer cells; 10 μM, Table 5.2, read-out: Cell survival at given concentration) of 102%, a viability at 32 µM (MCF7 breast cancer cells; 32 μM, Table 5.2, read-out: Cell survival at given concentration) of 100% and a viability at 100 µM (MCF7 breast cancer cells; 100 μM, Table 5.2, read-out: Cell survival at given concentration) of 104%. It also gave a viability at 317 µM (MCF7 breast cancer cells; [4]) of 98%, a viability at 1000 µM (MCF7 breast cancer cells; [5]) of 82% and a viability at 3000 µM (MCF7 breast cancer cells; [6]) of 54%. The viability at 10000 µM (MCF7 breast cancer cells; [7]) was 24%, the IC50 (MCF7 breast cancer cells; Table 5.2) was 3.59 mM and the viability at 1 µM ([1]; 1 μM, Table 6.2, read-out: Cell survival at given concentration) was 98%. It also gave a viability at 3 µM ([1]; 3 μM, Table 6.2, read-out: Cell survival at given concentration) of 99%, a viability at 10 µM ([1]; 10 μM, Table 6.2, read-out: Cell survival at given concentration) of 102% and a viability at 32 µM ([1]; 32 μM, Table 6.2, read-out: Cell survival at given concentration) of 101%. The viability at 100 µM ([1]; 100 μM, Table 6.2, read-out: Cell survival at given concentration) was 97%, the viability at 317 µM [1, 4] was 92% and the viability at 1000 µM [1, 5] was 66%. It also gave a viability at 3000 µM [1, 6] of 18%, a viability at 10000 µM [1, 7] of 1% and an IC50 ([1]; Table 6.2) of 1.44 mM. The viability at 1 µM (T24 bladder cancer cells; T-24, 1 μM, 72 h, Table 3.2, read-out: Cell survival at given concentration) was 98%, the viability at 3 µM (T24 bladder cancer cells; T-24, 3 μM, 72 h, Table 3.2, read-out: Cell survival at given concentration) was 100% and the viability at 10 µM (T24 bladder cancer cells; T-24, 10 μM, 72 h, Table 3.2, read-out: Cell survival at given concentration) was 105%. It also gave a viability at 32 µM (T24 bladder cancer cells; T-24, 32 μM, 72 h, Table 3.2, read-out: Cell survival at given concentration) of 99%, a viability at 100 µM (T24 bladder cancer cells; T-24, 100 μM, 72 h, Table 3.2, read-out: Cell survival at given concentration) of 97% and a viability at 317 µM (T24 bladder cancer cells; T-24, 317 μM, 72 h, read-out: Cell survival at given concentration) of 90%. The viability at 1000 µM (T24 bladder cancer cells; T-24, 1 mM, 72 h, read-out: Cell survival at given concentration) was 84%, the viability at 3000 µM (T24 bladder cancer cells; T-24, 3 mM, 72 h, read-out: Cell survival at given concentration) was 60% and the viability at 10000 µM (T24 bladder cancer cells; T-24, 10 mM, 72 h, read-out: Cell survival at given concentration) was 27%. It also gave an IC50 (T24 bladder cancer cells; T-24, 72 h, Table 3.2, read-out: IC50) of 4.72 mM, a viability at 1 µM (AGS stomach cancer cells; 72 h, 1 μM, Table 10.2, read-out: Cell survival at given concentration) of 100% and a viability at 3 µM (AGS stomach cancer cells; 72 h, 3 μM, Table 10.2, read-out: Cell survival at given concentration) of 100%. The viability at 10 µM (AGS stomach cancer cells; 72 h, 10 μM, Table 10.2, read-out: Cell survival at given concentration) was 102%, the viability at 32 µM (AGS stomach cancer cells; 72 h, 32 μM, Table 10.2, read-out: Cell survival at given concentration) was 101% and the viability at 100 µM (AGS stomach cancer cells; 72 h, 100 μM, Table 10.2, read-out: Cell survival at given concentration) was 104%. The viability at 317 µM (AGS stomach cancer cells; 72 h, 317 μM, read-out: Cell survival at given concentration) was 105%, the viability at 1000 µM (AGS stomach cancer cells; 72 h, 1 mM, read-out: Cell survival at given concentration) was 91% and the viability at 3000 µM (AGS stomach cancer cells; 72 h, 3 mM, read-out: Cell survival at given concentration) was 65%. It also gave a viability at 10000 µM (AGS stomach cancer cells; 72 h, 10 mM, read-out: Cell survival at given concentration) of 11%, an IC50 (AGS stomach cancer cells; Table 10.2) of 4.46 mM and a viability at 1 µM ([2]; 1 μM, Table 8.2, read-out: Cell survival at given concentration) of 100%. The viability at 3 µM ([2]; 3 μM, Table 8.2, read-out: Cell survival at given concentration) was 99%, the viability at 10 µM ([2]; 10 μM, Table 8.2, read-out: Cell survival at given concentration) was 100% and the viability at 32 µM ([2]; 32 μM, Table 8.2, read-out: Cell survival at given concentration) was 100%. It also gave a viability at 100 µM ([2]; 100 μM, Table 8.2, read-out: Cell survival at given concentration) of 98%, a viability at 317 µM [2, 4] of 93% and a viability at 1000 µM [2, 5] of 82%. For the same molecule, the viability at 3000 µM [2, 6] was 66%, the viability at 10000 µM [2, 7] was 40% and the IC50 ([2]; Table 8.2) was 6.44 mM. The viability at 1 µM ([3]; 1 μM, Table 4.2, read-out: Cell survival at given concentration) was 101%, the viability at 3 µM ([3]; 3 μM, Table 4.2, read-out: Cell survival at given concentration) was 99% and the viability at 10 µM ([3]; 10 μM, Table 4.2, read-out: Cell survival at given concentration) was 100%. The viability at 32 µM ([3]; 32 μM, Table 4.2, read-out: Cell survival at given concentration) was 100%, the viability at 100 µM ([3]; 100 μM, Table 4.2, read-out: Cell survival at given concentration) was 99% and the viability at 317 µM [3, 4] was 87%. The viability at 1000 µM [3, 5] was 46%, the viability at 3000 µM [3, 6] was 19% and the viability at 10000 µM [3, 7] was 13%. The IC50 ([3]; Table 4.2) was 0.912 mM, the viability at 1 µM (A-431 skin cancer cells; 1 μM, Table 9.2, read-out: Cell survival at given concentration) was 103% and the viability at 3 µM (A-431 skin cancer cells; 3 μM, Table 9.2, read-out: Cell survival at given concentration) was 102%. For the same molecule, the viability at 10 µM (A-431 skin cancer cells; 10 μM, Table 9.2, read-out: Cell survival at given concentration) was 102%, the viability at 32 µM (A-431 skin cancer cells; 32 μM, Table 9.2, read-out: Cell survival at given concentration) was 103% and the viability at 100 µM (A-431 skin cancer cells; 100 μM, Table 9.2, read-out: Cell survival at given concentration) was 99%. It also gave a viability at 317 µM (A-431 skin cancer cells; [4]) of 96%, a viability at 1000 µM (A-431 skin cancer cells; [5]) of 85% and a viability at 3000 µM (A-431 skin cancer cells; [6]) of 67%. The viability at 10000 µM (A-431 skin cancer cells; [7]) was 37% and the IC50 (A-431 skin cancer cells; Table 9.2) was 6.32 mM.
